Assay results from patent publication US4292309A, “Antibiotics C-14482 B1, B2 and B3” (Takeda Chemical Industries, Ltd., priority 1979, dated 1981).
In brackets after ≈: the same amount, converted by molar mass. Read-outs that look alike come from different tables or passages of the source.

Key:
Strain IFO 13887 = experiment: Susceptibility toward antibiotic (minimum inhibition concentration); assay type: cell-based, Nocardia sp. No. C-14482; conditions: Nocardia
Text: (§1) For example, a conventional mutagenesis effected with the strain IFO 13725 as the parent strain yields the strain IFO 13887, a variant capable of producing advantageously Antibiotic C-14482 B. This strain has the capability to produce C-14482 B in increased quantities as compared with the parent strain thereof, and is similar in taxonomical characteristics to the parent strain, except the physiological properties shown in Table 4.

Strain IFO 13725 = experiment: as above; assay type: cell-based, Nocardia sp. No. C-14482; conditions: Nocardia
Text: as §1

[1] = IFO13887, Strain IFO 13887, read-out: minimum inhibition concentration
[2] = IFO13725, Strain IFO 13725, read-out: minimum inhibition concentration

| Structure (SMILES) | MIC (Strain IFO 13887; [1]) | MIC (Strain IFO 13725; [2]) | MIC (Strain IFO 13887; IFO13887, read-out: minimum inhibition concentration) | MIC (Strain IFO 13725; IFO13725, read-out: minimum inhibition concentration) |
| --- | --- | --- | --- | --- |
| O=C(N[C@H](CO)[C@H](O)c1ccc([N+](=O)[O-])cc1)C(Cl)Cl [Chloramphenicol] | 5 µg/mL (≈ 15.5 µM) | 10 µg/mL (≈ 30.9 µM) |  |  |
| CCC[C@@H]1C[C@@H](C(=O)N[C@@H]([C@H]2O[C@H](SC)[C@H](O)[C@@H](O)[C@H]2O)[C@@H](C)O)N(C)C1 [Lincomycin] | 20 µg/mL (≈ 49.2 µM) | 5 µg/mL (≈ 12.3 µM) |  |  |
| CC1(C)S[C@@H]2[C@H](NC(=O)Cc3ccccc3)C(=O)N2[C@H]1C(=O)O [Penicillin G] | 50 µg/mL (≈ 150 µM) | 10 µg/mL (≈ 29.9 µM) |  |  |
| CO[C@H]1/C=C/O[C@@]2(C)Oc3c(C)c(O)c4c(O)c(c(/C=N/N5CCN(C)CC5)c(O)c4c3C2=O)NC(=O)/C(C)=C\C=C\[C@H](C)[C@H](O)[C@@H](C)[C@@H](O)[C@@H](C)[C@H](OC(C)=O)[C@@H]1C [Rifampicin] | < 0.1 µg/mL | < 0.1 µg/mL |  |  |
| [H]/N=C(/N)N[C@H]1[C@H](O)[C@@H](O)[C@H](O[C@@H]2O[C@@H](C)[C@](O)(C=O)[C@H]2O[C@@H]2O[C@@H](CO)[C@H](O)[C@@H](O)[C@@H]2NC)[C@@H](N/C(N)=N\[H])[C@@H]1O [Streptomycin] | 5 µg/mL (≈ 8.6 µM) | 1 µg/mL (≈ 1.72 µM) |  |  |
| CN(C)C1C(=O)C(C(N)=O)=C(O)C2(O)C(=O)C3=C(O)c4c(O)cccc4C(C)(O)C3CC12 (stereo not drawn) [Tetracycline] |  |  | 1 µg/mL (≈ 2.25 µM) | 0.5 µg/mL (≈ 1.13 µM) |
